Usually inhibition stands for the drop in the measured response relative to a control, in per cent. Usually IC50 stands for the concentration needed to halve the response being measured.

14 molecules from ChEMBL document CHEMBL3763035, “Neuroprotective profile of pyridothiazepines with blocking activity of the mitochondrial Na(+)/Ca(2+) exchanger” (Eur J Med Chem, 2016) can be followed below.

Calls of active or inactive are those of the source. No cut-off for these calls is given here.

The subject of data set [1] is SH-SY5Y. Nature of the data set: Neuroprotective activity against rotenone/oligomycin A-induced oxidative stress in human SH-SY5Y cells assessed as cell viability at 0.3 uM pretreated for 24 hrs measured 24 hrs post rotenone/oligomycin challenge by MTT assay relative to control. In kind it is functional. To be noted: read-out: Activity. A general note: Tetrazolium dyes change colour on reduction, which living cells bring about.

Data set [2] has as its system SH-SY5Y. The experiment in a line: Neuroprotective activity against potassium ion-induced cytotoxicity in human SH-SY5Y cells assessed as cell viability at 3 uM pretreated for 24 hrs measured 24 hrs post potassium ion challenge by MTT assay relative to control. In kind it is functional. The note with it: read-out: Activity.
Data set [3] relates to Hippocampus. The experiment in a line: Neuroprotective activity against glutamate-induced neuronal cell death in Sprague-Dawley rat brain hippocampal slices assessed as cell viability at 10 uM incubated 4 hrs by MTT assay relative to control. In kind it is functional. The note with it: read-out: Activity.
The nature of data set [4]: Neuroprotective activity against veratradine-induced neuronal cell death in bovine chromaffin cells assessed as cell viability at 10 uM after 24 hrs by LDH release assay relative to control. The format is functional. The note with it: Bos taurus, read-out: Activity.
Data set [5] addresses T1, Mitochondrial sodium/calcium exchanger protein (Homo sapiens) (UniProt Q6J4K2).
T1 sequence (whole entry): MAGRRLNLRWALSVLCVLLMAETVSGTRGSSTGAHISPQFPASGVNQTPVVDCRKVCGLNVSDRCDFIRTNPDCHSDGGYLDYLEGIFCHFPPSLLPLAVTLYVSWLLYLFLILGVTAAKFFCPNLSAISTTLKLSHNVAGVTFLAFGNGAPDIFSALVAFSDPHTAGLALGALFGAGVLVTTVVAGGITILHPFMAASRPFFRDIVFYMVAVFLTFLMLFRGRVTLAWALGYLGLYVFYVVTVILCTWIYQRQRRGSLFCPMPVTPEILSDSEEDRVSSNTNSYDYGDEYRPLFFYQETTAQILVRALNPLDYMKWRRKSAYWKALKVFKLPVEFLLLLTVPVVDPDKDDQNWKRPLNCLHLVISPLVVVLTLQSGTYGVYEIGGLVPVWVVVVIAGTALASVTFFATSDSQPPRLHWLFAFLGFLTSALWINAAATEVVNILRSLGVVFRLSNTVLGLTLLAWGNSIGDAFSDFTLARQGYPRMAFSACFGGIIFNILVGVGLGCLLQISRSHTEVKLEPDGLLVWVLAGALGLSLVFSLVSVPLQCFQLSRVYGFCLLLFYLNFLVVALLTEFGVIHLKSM
The experiment in a line: Inhibition of mitochondrial sodium/calcium exchanger in human HeLa cells assessed as reduction in decay rate of histamine-induced mitochondrial calcium at 3 uM after 36 to 48 hrs by aequorin staining based bioluminescence assay. In kind it is cell-based.

In data set [6] the target is T1, Mitochondrial sodium/calcium exchanger protein (Homo sapiens). Nature of the data set: Inhibition of mitochondrial sodium/calcium exchanger in human HeLa cells assessed as reduction in clearance of histamine-induced mitochondrial calcium at 3 uM after 36 to 48 hrs by aequorin staining based bioluminescence assay. In kind it is cell-based.
The target of data set [7] is T2, Mitochondrial sodium/calcium exchanger protein (Homo sapiens, UniProt Q6J4K2).
T2 sequence (Q6J4K2 whole entry): T1 sequence (whole entry)
Nature of the data set: Inhibition of mitochondrial sodium/calcium exchanger (unknown origin).

The species named for data set [8] is Bos taurus. The experiment in a line: Inhibition of voltage gated calcium channel in bovine chromaffin cells assessed as blockade of depolarizing pulse-induced whole cell inward calcium currents by perforated patch clamp method. In kind it is cell-based. (In general: The patch-clamp technique gives a direct electrical read-out from membranes.)
The species entered for data set [9] is Bos taurus. The experiment in a line: Inhibition of sodium channel in bovine chromaffin cells assessed as blockade of inward sodium currents by perforated patch clamp method. The format is cell-based.
The target in data set [10] is T1, Mitochondrial sodium/calcium exchanger protein (Homo sapiens). The experiment in a line: Inhibition of mitochondrial sodium/calcium exchanger in human HeLa cells assessed as increase in maximal peak of histamine-induced mitochondrial calcium at 3 uM after 36 to 48 hrs by aequorin staining based bioluminescence assay. The format is cell-based.
Data set [11] has the same target. Nature of the data set: Inhibition of mitochondrial sodium/calcium exchanger in human HeLa cells assessed as increase in AUC of histamine-induced mitochondrial calcium at 3 uM after 36 to 48 hrs by aequorin staining based bioluminescence assay. The format is cell-based.
The test system of data set [12] is SH-SY5Y. Nature of the data set: Cytotoxicity in human SH-SY5Y cells assessed as ROS generation after 24 hrs by H2DCFDA/Hoechst dye based fluorescence assay. The format is cell-based.
For data set [13], the system named is HeLa. The experiment in a line: Cytotoxicity against human HeLa cells assessed as reduction in cell viability at 0.3 to 30 uM after 24 hrs by MTT assay. The format is cell-based.

With `COc1ccc2[nH]cc(CCNC(C)=O)c2c1` [MELATONIN], the viability at 0.3 µM in data set [1] was 27%.
Turning to `O=C1CSC(c2ccccc2Br)c2cc(Cl)cnc2N1` (stereo not given), the viability at 3 µM in [2] came out at 30%. Also, the values for the viability at 10 µM in data set [3] and in [4] were 28% and 23%, respectively. Besides, the inhibition entry in [5] was “Active”. The viability at 0.3 µM in data set [1] was found to be 21%. In data set [6], the inhibition entry was “inactive”.
In the case of `CC(C)c1ccccc1C1SCC(=O)Nc2ncc(Cl)cc21` (stereo not given), the viability at 3 µM in data set [2] was 28%. In addition, the viability at 10 µM in data set [3] was 33%; in data set [4], 49%. For the same molecule, the viability at 0.3 µM in data set [1] came out at 19%.
On to `COC(=O)C1=C(C)NC(C)=C(C(=O)OC)C1c1ccccc1[N+](=O)[O-]` [NIFEDIPINE], for which the viability at 3 µM in data set [2] stood at 24%.
With `O=C1CSC(c2ccccc2Cl)c2cc(Cl)ccc2N1` (stereo not given), the viability at 3 µM in data set [2] amounted to 36%. Also, the viability at 10 µM in data set [3] was 37%; in data set [4], 76%. In data set [5], the inhibition result is “Active”. Further, in data set [1], the viability at 0.3 µM came out at 18%. Further, the IC50 in [7] was 1.6 µM. Besides, the inhibition in [8] (dose or concentration not given here) is 37%.
Turning to `CC12CC3CC(C)(C1)CC(N)(C3)C2` [MEMANTINE], the viability at 10 µM in [3] was 43%.
As for `COc1ccccc1C1SCC(=O)Nc2ncc(Cl)cc21` (stereo not given), the viability at 3 µM in [2] was 17%. Further, the viability at 10 µM in data set [3] stood at 13%; in data set [4], 27%. In addition, the viability at 0.3 µM in [1] stood at 19%.
In the case of `COc1ccc(C2SCC(=O)Nc3ncc(Cl)cc32)cc1` (stereo not given), the viability at 3 µM in data set [2] came to 10%. Further, the viability at 10 µM in [3] was 34%; in data set [4], 27%. For the same molecule, the viability at 0.3 µM in [1] amounted to 23%.
For `O=C1CSC(c2ccccc2C(F)(F)F)c2cc(Cl)cnc2N1` (stereo not given), in that order: 19%, 42%, 17% and 18%.
Consider `O=C1CSC(c2ccc(F)cc2)c2cc(Cl)cnc2N1` (stereo not given), for which, in data set [2], the viability at 3 µM was found to be 27%. In addition, the viability at 10 µM in [3] is 20%; in [4], 22%. Besides, the inhibition entry in data set [9] and in data set [8] was “inactive” in each case. Further, the inhibition entry in data set [5], in [10] and in data set [11] was “Active” in each case. In data set [1], the viability at 0.3 µM came out at 24%. Also, the Activity entry in data set [12] and in data set [13] was “Non-toxic” in each case.
For the molecule `O=C1CSC(c2ccccc2Cl)c2cc(Cl)cnc2N1` (stereo not given), in data set [2], the viability at 3 µM was 33%. In addition, the viability at 10 µM came out at 27% in data set [3] and 22% in data set [4]. Moreover, the viability at 0.3 µM in data set [1] was 11%.
For `Cc1ccccc1C1SCC(=O)Nc2ncc(Cl)cc21` (stereo not given), in that order: 20%, 27%, 14% and 21%.
On the same counts, the results for `CCOc1ccccc1C1SCC(=O)Nc2ncc(Cl)cc21` (stereo not given) are 28%, 11%, 17% and 26%.
Take `O=C1CSC(c2ccccc2)c2cc(Cl)cnc2N1` (stereo not given): the viability at 3 µM in data set [2] came to 21%. Besides, the viability at 10 µM in [3] was 33%; in data set [4], 6%. In addition, in data set [5], the inhibition result is “Active”. For the same molecule, in data set [1], the viability at 0.3 µM came out at 30%.
